Source: patent US20200023001A1, “GlycoFix (Structurally And Functionally Repaired Endothelial Glycocalyx)” (Northeastern University, priority 2018, published 2020)

Key:
[1] = test system: heparan sulfate (HS) of RFPEC glycocalyx; test: HS expression (coverage) in RFPEC glycocalyx by immunofluorescence confocal microscopy (Example 1); format: cell-based, rat
Description: (§1) Cell Culture. Rat fat pad ECs (RFPEC) at passages 20 to 39 were offspring of cells isolated from rat epididymal fat pad and provided by Dr. Mia Thi of Albert Einstein College of Medicine (Bronx, N.Y.). […] The RFPECs are immortalized, making it possible to use late passages. RFPEC were seeded on 12-14-mm diameter and 0.13-0.17-mm thick glass coverslips at a seeding density of 15,000-20,000 cells/cm^2. Cells were cultured in Dulbecco's Modified Eagle Medium (DMEM, Invitrogen, USA) with 1% penicillin-streptomycin (PS) and 10% fetal bovine serum (FBS, Gibco Life Technologies). Cells were maintained in humidity at 37° C. and 5% CO2. RFPECs reached full confluence in 3 days.
(§2) Cultured RFPECs produce thick and robust GCX in this time period. At 3 days post-seeding the RFPECs' culture medium was supplemented with 1% BSA in place of FBS to stabilize the GCX during preservation and immunolabeling (described below). For enzyme treatment experiments, 25 micro-international units per milliliter (μIU/ml) of heparinase III (Hep III; IBEX, Canada) were added to BSA-containing culture media for 2 hours to degrade HS from the GCX [46]. HepIII was washed out, and the wash-out was followed by a 16-hour incubation of RFPECs in regular BSA-containing media. In self-recovery experiments, RFPEC GCX was left to recover for 24 hours after enzyme degradation. The time frame was chosen in accordance with the 20-hour time period that is required for HS restoration to occur on the surface of ECs. For HS recovery experiments, exogenous HS and/or S1P were applied for 16 hours to accommodate the communication test as an assessment of functional glycocalyx recovery. […] After HS was degraded with HepIII, it was replaced by a 16-hour feeding of RFPECs with 59 μg/ml exogenous porcine mucosal HS (Celsus, Cincinnati, Ohio), based on published serum concentration of HS [43]. In sphingosine-1-phosphate experiments, culture media containing enzyme was substituted for media containing either 10 μM of S1P (Sigma-Aldrich) or a combination of 59 μg/ml of HS and 10 μM of S1P for 16 hours after enzyme degradation.
Immunostaining. RFPECs have high affinity to most antibodies that are available for performing immunocytochemistry. For heparan sulfate (HS), RFPEC monolayers were treated with 2% paraformaldehyde/1% glutaraldehyde in phosphate buffered saline (PBS) for fixation, treated with 2% goat serum in PBS to block non-specific ligands, and stained for three nights at 4° C. with a 1:100 10E4-epitope HS antibody (Amsbio).
As specified by the manufacturer, the HS antibody reacts with many types of heparan sulfate. The reactivity of the HS antibody is abolished after treatment with Hep III, indicating antibody specificity. […]

[2] = test system: Cx-containing gap junctions of RFPEC; test: Lucifer Yellow scratch-loading dye transfer assay (gap junction communication); format: cell-based, rat
Description: as §1, §2
Dye transfer assay, fluorescence microscopy and image analysis. Gap junction functionality was assessed by loading Lucifer Yellow in RFPECs, using a scratch technique, and observing the extent of Lucifer Yellow transfer from loaded cells to neighboring cells (FIG. 7B). Lucifer Yellow has a molecular weight of 457.3 and can only enter cells via broken membranes or via gap junctions. The scratch loading technique involved pre-incubation of RFPECs (for 1 minute) with calcium- and magnesium-free Hanks' Balanced Salt Solution (HBSS; Life Technology) containing 5 mg/ml Lucifer Yellow dye (Life Technology). A 5-μm diameter tip scribe (Ted Pella, Inc, USA) was then used to carefully create a straight scratch in the RFPEC monolayer and to allow the dye to enter the scratched cells. After the dye was loaded, it spread via open gap junctions to adjacent intact cells, with the extent of Lucifer Yellow spread reaching a plateau by 10 minutes after loading. At that point, excess dye was washed out and RFPECs were imaged at 10× magnification (dry objective) using a Zeiss Observer Z1 fluorescence microscope. From recorded images of dye transfer after scratch loading, ImageJ randomly selected dye spread locations that would be quantified along the scratch. At those random locations, lines perpendicular to the scratch axis were drawn, and the intact fluorescent cells (scratched cells excluded) were counted. […]

heparan sulfate [HS]
HS expression in GCX, result in words (FIG. 2 legend) ([1]; 25 μIU/ml Hep III, HS 59 μg/ml, S1P 10 μM): significant recovery of HS back to baseline conditions
HS coverage of cell surfaces ([1]; RFPEC, Hep III 2 hours, probed 16 hours after, with or without 59 μg/ml exogenous HS and/or 10 μM S1P for the 16 hours, mean±SEM): 65.58±2.26%
Lucifer Yellow dye spread, neighboring cells receiving dye per scratch-loaded cell ([2]; RFPEC, Hep III, then 16 h with or without 59 μg/ml HS and/or 10 μM S1P, mean±SEM): 1.03±0.07 cells
Lucifer Yellow dye transfer, result in words (FIG. 4 legend) ([2]; after Hep III, HS 59 μg/ml, S1P 10 μM): Not much Lucifer Yellow dye transfer improvement
